Publication PMC3821638, “Molecular Cloning and Characterization of the Calcineurin Subunit A from Plutella xylostella” (International Journal of Molecular Sciences, 2013)
Where two headings read alike, the source gives them in different places.

Biological target: T1, Calcineurin subunit A (PxCNA), catalytic domain PxCNα (Plutella xylostella, UniProt V5U5Q7)
T1 construct: catalytic (phosphatase) domain CNA1–341 (PxCNα), His-tagged, expressed in E. coli
Assay: pNPP phosphatase assay with purified recombinant rPxCNα, dose-response and enzyme kinetics
Assay type: biochemical

T1 sequence (V5U5Q7 1-341): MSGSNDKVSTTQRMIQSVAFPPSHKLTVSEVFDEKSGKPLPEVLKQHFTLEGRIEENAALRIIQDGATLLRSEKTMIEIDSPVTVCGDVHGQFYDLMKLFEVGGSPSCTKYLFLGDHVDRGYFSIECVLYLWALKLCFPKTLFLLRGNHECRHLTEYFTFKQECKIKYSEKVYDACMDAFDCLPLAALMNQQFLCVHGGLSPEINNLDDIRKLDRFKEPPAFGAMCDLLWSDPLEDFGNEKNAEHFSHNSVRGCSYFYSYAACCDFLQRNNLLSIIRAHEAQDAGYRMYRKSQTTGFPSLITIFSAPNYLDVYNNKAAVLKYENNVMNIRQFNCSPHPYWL

Row | SMILES | IC50 (read-out: IC50) | IC50
1 | C=C1[C@@H](O)[C@@H]2O[C@]3(CC[C@H](/C=C/[C@@H](C)[C@@H]4CC(C)=C[C@@]5(O[C@H](C[C@@](C)(O)C(=O)O)CC[C@H]5O)O4)O3)CC[C@H]2O[C@@H]1[C@@H](O)C[C@H](C)[C@H]1O[C@@]2(CCCCO2)CC[C@H]1C [OA, okadaic acid] | 8.95 µM | –
2 | C[C@@]12C(=O)OC(=O)[C@]1(C)[C@H]1CC[C@@H]2O1 [CTD, cantharidin] | – | 77.6 µM
